Measured values: US20240366579A1, “PHARMACEUTICAL COMPOSITION COMPRISING GPR40 AGONIST AND SGLT-2 INHIBITOR” (ILDONG PHARMACEUTICAL CO., LTD., priority 2021, published 2024)

System: Sprague-Dawley (SD) rats
Experiment: oral glucose tolerance test (OGTT) in SD rats, reduction rate in blood glucose AUC relative to vehicle
Format: in vivo, rat
Conditions: male SD rats
Description: In this experiment, the compound represented by Formula 1 was prepared by the method described in Example 5 of Korean Patent Laid-Open Publication No. 10-2018-0069718 and dapagliflozin (HY-10450, MedChemExpress Co., Ltd.) was used. As a control group, a vehicle (0.5% carboxymethyl cellulose (CMC)) was used.
After at least 1 week of acclimatization of 8 to 10 week-old male Sprague-Dawley (SD) rats, an oral glucose tolerance test (OGTT) was performed using healthy rats.
After 16 hours of fasting, the rats were randomly divided into groups each having 5 rats similar in body weight and blood glucose level, followed by administration of the vehicle (0.5% carboxymethyl cellulose (CMC)), 0.3 mg/kg of the compound represented by Formula 1 alone, 0.1 mg/kg of dapagliflozin alone, or a combination of 0.3 mg/kg of the compound represented by Formula 1 and 0.1 mg/kg of dapagliflozin. One hour after administration of each of the drugs, glucose (2 g/kg) was intraperitoneally injected at a dose of 10 ml/kg. Blood glucose level was measured 60 minutes before glucose injection and 0, 15, 30, 60, and 120 minutes after glucose injection through puncture of the caudal vein using a blood glucose meter (Gluco DR. Almedicus. Co. Ltd.). Results were expressed by a reduction rate (%) in area under the blood glucose curve (AUC) relative to administration of the vehicle.
Results of measuring AUC from 0 to 60 min and from 0 to 120 min after glucose injection according to the above method are shown in Table 1 and FIG. 1.
An experiment was conducted in the same manner as in Example 1 except that 0.3 mg/kg of empagliflozin (HY-15409, MedChemExpress Co., Ltd.) was used instead of 0.1 mg/kg of dapagliflozin.

[1] = Example 1, 0.3 mg/kg alone, 1 h before glucose 2 g/kg
[2] = Example 2, Formula 1 0.3 mg/kg alone
[3] = Example 1, 0.1 mg/kg alone, 1 h before glucose 2 g/kg
[4] = Example 2, empagliflozin 0.3 mg/kg alone

CC#C[C@@H](CC(=O)O)c1ccc(O[C@@H]2CCc3c(-c4ccc(O[C@@H]5CCOC5)nc4)ccc(F)c32)cc1 [Compound of Formula 1, (S)-3-(4-(((R)-7-fluoro-4-(6-(((R)-tetrahydrofuran-3-yl)oxy)pyridin-3-yl)-2,3-dihydro-1H-inden-1-yl)oxy)phenyl)hex-4-ynoic acid]
reduction rate (%) in area under the blood glucose curve AUC (0-60 min) relative to vehicle [1]: 17.9%
reduction rate (%) in area under the blood glucose curve AUC (0-120 min) relative to vehicle [1]: 18.1%
reduction rate (%) in area under the blood glucose curve AUC (0-60 min) relative to vehicle [2]: 21.3%
reduction rate (%) in area under the blood glucose curve AUC (0-120 min) relative to vehicle [2]: 21.6%

CCOc1ccc(Cc2cc([C@@H]3O[C@H](CO)[C@@H](O)[C@H](O)[C@H]3O)ccc2Cl)cc1 [Dapagliflozin, dapagliflozin]
reduction rate (%) in area under the blood glucose curve AUC (0-60 min) relative to vehicle [3]: 9.8%
reduction rate (%) in area under the blood glucose curve AUC (0-120 min) relative to vehicle [3]: 6.7%

OC[C@H]1O[C@@H](c2ccc(Cl)c(Cc3ccc(O[C@H]4CCOC4)cc3)c2)[C@H](O)[C@@H](O)[C@@H]1O [Empagliflozin, empagliflozin]
reduction rate (%) in area under the blood glucose curve AUC (0-60 min) relative to vehicle [4]: 5.5%
reduction rate (%) in area under the blood glucose curve AUC (0-120 min) relative to vehicle [4]: 4.0%
